US9758459B2, “Allosteric modulators of factor XIa as anticoagulant agents” (VIRGINIA COMMONWEALTH UNIVERSITY, priority 2012, dated 2017)
“And” between values parts separate entries of the source, which are not always exact repeats. Equal values may be shown once.

How the values were obtained:
Assay type in all cases: biochemical
[1] = biological target: T1, recombinant wild type FXIa catalytic domain (FXIa-CD) (Homo sapiens, UniProt P03951, C500S); test: 16S inhibition of recombinant FXIa catalytic domain, S2366 hydrolysis
T1 construct: eliminating the bond allows the catalytic domain of FXIa (FXIa-CD) to separate from the heavy chain; made in house; host or cells: HEK-293
Text: (§1) FIG. 15. […] Solid lines represent sigmoidal dose-response fits.
(§2) Mutagenesis and Expression of Recombinant Factor XIa. Mutations in the FXIa 170 helix were introduced into a modified human FXI cDNA (FXI-Ser-362,482), which contains serine substitutions for Cys362 and Cys482 (FXI numbering), as described earlier in several papers.^7,8 A disulfide bond between these residues connects the heavy chains and catalytic domains after cleavage at the activation site, and eliminating the bond allows the catalytic domain of FXIa (FXIa-CD) to separate from the heavy chain. The basic residues of the FXIa 170-helix, Lys529, Arg530, Arg532, Lys535 and Lys539 in the FXI numbering system (correspond to residues 170, 171, 173, 175 and 179 in the chymotrypsinogen numbering system), were changed to alanine individually and as a group using a Quick Change kit (Stratagene, La Jolla, Calif.). cDNAs in expression vector pJVCMV were used to transfect HEK-293 cells as described. Stably expressing clones were expanded in 175 cm^2 flasks, and serum free media (Cellgro Complete, Mediatech, Herndon, Va.) was collected every 48 hours, supplemented with benzamidine (5 mM) and stored at −80° C. pending purification. Recombinant FXI was purified from conditioned media on an anti-fXI IgG 1G5.12 affinity column. After loading, the column was washed with 25 mM Tris-HCl, pH 7.4, 100 mM NaCl, and eluted with 2M NaSCN in the same buffer. Protein containing fractions were pooled, concentrated and dialyzed, and protein concentrations were determined by dye-binding assay (Bio-Rad). Recombinant wild-type FXI or FXI-CD (˜200-300 μg/ml) was activated with 5 μg/ml FXIIa at 37° C. Completion of activation was confirmed by SDS-PAGE. Activated preparations were passed over a 1G5.12 column to separate the protease from FXIIa. In the case of proteins prepared in FXI-Ser-362,482, the catalytic domains bind to the column, while the heavy chain passes through.
(§3) Heparin binds to FXIa in two sites—in the A3 domain (Lys252, Lys253, and Lys255) and in the catalytic domain (Lys529, Arg530, Arg532, Lys535, and Lys539). […]

human plasma [2] = test: Activated partial thromboplastin time (APTT) plasma clotting assay; settings: human plasma, concentration doubling clotting time
Description: (§4) Plasma clotting assays, prothrombin and activated partial thromboplastin time (PT and APTT, respectively), are routinely used to assess the anticoagulation potential of new enzyme inhibitors in an in vitro setting. Whereas PT measures the effect of an inhibitor on the extrinsic pathway of coagulation, APTT measures the effect on the intrinsic pathway.
(§5) Prothrombin Time (PT) and Activated Partial Thromboplastin Time (APTT) were assessed as described in Example 1.

human plasma [3] = test: Prothrombin time (PT) plasma clotting assay; settings: concentration doubling clotting time
Description: as §4, §5

Lys535Ala FXIa-CD = biological target: T2, Lys535Ala FXIa-CD (Homo sapiens, UniProt P03951, C500S/K553A); test: 16S inhibition of Lys535Ala FXIa-CD; settings: not shown
T2 construct: eliminating the bond allows the catalytic domain of FXIa (FXIa-CD) to separate from the heavy chain; made in house; host or cells: HEK-293
Text: as §2, with “After loading, the column was washed with 25 mM Tris-HCl, pH 7.4, 100 mM NaCl, and eluted with 2M NaSCN in the same buffer.” left out, “Recombinant wild-type FXI or FXI-CD (˜200-300 μg/ml) was activated with 5 μg/ml FXIIa at 37° C. Completion of activation was confirmed by SDS-PAGE. Activated preparations were passed over a 1G5.12 column to separate the protease from FXIIa. In the case of proteins prepared in FXI-Ser-362,482, the catalytic domains bind to the column, while the heavy chain passes through.” left out

[4] = biological target: T3, Lys529Ala,Arg530Ala,Arg532Ala FXIa-CD triple mutant (Homo sapiens, UniProt P03951, C500S/K547A/R548A/R550A); test: 16S inhibition of triple mutant FXIa-CD, S2366 hydrolysis
T3 construct: eliminating the bond allows the catalytic domain of FXIa (FXIa-CD) to separate from the heavy chain; made in house; host or cells: HEK-293
Text: as §1, §2, §3

[5] = biological target: T4, Arg530Ala FXIa-CD single mutant (Homo sapiens, UniProt P03951, C500S/R548A); test: 16S inhibition of Arg530Ala FXIa-CD, S2366 hydrolysis; settings: Arg530 replaced by Ala
T4 construct: eliminating the bond allows the catalytic domain of FXIa (FXIa-CD) to separate from the heavy chain; made in house; host or cells: HEK-293
Text: as §1
as §2, with “Recombinant FXI was purified from conditioned media on an anti-fXI IgG 1G5.12 affinity column. After loading, the column was washed with 25 mM Tris-HCl, pH 7.4, 100 mM NaCl, and eluted with 2M NaSCN in the same buffer.” left out, “Recombinant wild-type FXI or FXI-CD (˜200-300 μg/ml) was activated with 5 μg/ml FXIIa at 37° C. Completion of activation was confirmed by SDS-PAGE. Activated preparations were passed over a 1G5.12 column to separate the protease from FXIIa. In the case of proteins prepared in FXI-Ser-362,482, the catalytic domains bind to the column, while the heavy chain passes through.” left out

Lys539Ala FXIa-CD = biological target: T5, Lys539Ala FXIa-CD (Homo sapiens, UniProt P03951, C500S/K557A); test: 16S inhibition of Lys539Ala FXIa-CD; settings: not shown
T5 construct: eliminating the bond allows the catalytic domain of FXIa (FXIa-CD) to separate from the heavy chain; made in house; host or cells: HEK-293
Text: as §2, with “After loading, the column was washed with 25 mM Tris-HCl, pH 7.4, 100 mM NaCl, and eluted with 2M NaSCN in the same buffer.” left out, “Recombinant wild-type FXI or FXI-CD (˜200-300 μg/ml) was activated with 5 μg/ml FXIIa at 37° C. Completion of activation was confirmed by SDS-PAGE. Activated preparations were passed over a 1G5.12 column to separate the protease from FXIIa. In the case of proteins prepared in FXI-Ser-362,482, the catalytic domains bind to the column, while the heavy chain passes through.” left out

human factor XIa [6] = biological target: T6, human factor XIa (Homo sapiens, UniProt P03951); test: Direct inhibition of factor XIa, chromogenic substrate S-2366 hydrolysis assay; settings: FXIa-WT, 16S plus 30 μM polybrene
T6 construct: purchased Haematologic Technologies (Essex Junction, Vt.); host or cells: human plasma

human factor XIa [7] = biological target: T6, human factor XIa; test: as above
Description: Solvent A consisted of 25 mM n-hexylamine in water containing 0.1% (v/v) formic acid, while solvent B consisted of 25 mM n-hexylamine in acetonitrile-water mixture (3:1 v/v) containing 0.1% (v/v) formic acid. […] The sample was first monitored for absorbance in the range of 190-400 nm and then directly introduced into the mass spectrometer. ESI-MS detection was performed in positive ion mode for which the capillary voltage was 4 kV, cone voltage was 20 V, desolvation temperature was 350° C. and nitrogen gas flow was maintained at 650 L/hr. Mass scans were collected in the range of 1000-2048 amu within 0.25 s and several of these added to enhanced signal-to-noise ratio. Direct Inhibition of Factor XIa. […] After 10 min incubation, 5 μL factor XIa substrate (345 μM) was rapidly added and the residual FXIa activity was measured from the initial rate of increase in absorbance at 405 nm. […] Relative residual FXIa activity at each concentration of the inhibitor was calculated from the ratio of FXIa activity in the presence and absence of the inhibitor. Logistic equation 1 was used to fit the dose-dependence of residual protease activity to obtain the potency (IC50) and efficacy (ΔY) of inhibition.
Direct Inhibition of Factor XIa by Sulfated QAOs was performed as described in Example 1.
The ability of the sulfated inositol analogs to inhibit factor XIa was studied using the in vitro assay described in Example 1. In this assay, the factor XIa enzyme is anticipated to hydrolyze a particular peptide linkage in the corresponding peptide substrate releasing p-nitroaniline which absorbs at wavelength of 405 nm giving a line slope corresponds to the enzyme activity. The line slope of no inhibitor status is considered as a reference slope and it depends on the relative concentrations of factor XIa enzyme and its substrate. Factor XIa enzyme concentration was decided to get appropriate reference slope of approximately 25-35, whereas the substrate concentration was set to be larger than its affinity to factor XIa enzyme under equilibrium condition, Km. In presence of potential factor XIa inhibitor, the enzyme capacity to hydrolyze the designated peptide linkage in the substrate gets diminished or completely abolished depending on the inhibitor concentration and efficacy. […] Such decreased slope reflects a drop in the catalytic enzyme activity of factor XIa.

T1 sequence (P03951 388-625 C500S): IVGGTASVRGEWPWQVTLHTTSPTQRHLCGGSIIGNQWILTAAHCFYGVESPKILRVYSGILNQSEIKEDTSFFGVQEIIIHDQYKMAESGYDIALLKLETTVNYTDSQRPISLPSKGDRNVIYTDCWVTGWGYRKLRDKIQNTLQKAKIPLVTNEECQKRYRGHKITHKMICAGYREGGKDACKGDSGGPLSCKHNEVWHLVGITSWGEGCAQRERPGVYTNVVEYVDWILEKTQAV
T3 sequence (P03951 388-625 C500S/K547A/R548A/R550A): as the sequence (P03951 388-625 C500S) above, with K160A, R161A, R163A counted along it
T6 sequence (P03951 19-387 limits assumed): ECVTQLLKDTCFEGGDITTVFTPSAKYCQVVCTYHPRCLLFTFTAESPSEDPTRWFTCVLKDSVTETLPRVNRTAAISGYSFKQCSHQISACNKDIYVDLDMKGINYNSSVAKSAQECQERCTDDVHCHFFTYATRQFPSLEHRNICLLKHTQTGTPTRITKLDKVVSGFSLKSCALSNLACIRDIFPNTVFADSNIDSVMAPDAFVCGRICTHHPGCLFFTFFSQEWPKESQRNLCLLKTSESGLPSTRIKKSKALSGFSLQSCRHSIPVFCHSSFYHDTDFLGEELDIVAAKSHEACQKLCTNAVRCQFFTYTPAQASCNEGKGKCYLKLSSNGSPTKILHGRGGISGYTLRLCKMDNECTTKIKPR
T6 sequence (P03951 388-625 limits assumed): as the sequence (P03951 388-625 C500S) above, with S113C counted along it
T5 sequence (P03951 388-625 C500S/K557A): as the sequence (P03951 388-625 C500S) above, with K170A counted along it
T4 sequence (P03951 388-625 C500S/R548A): as the sequence (P03951 388-625 C500S) above, with R161A counted along it
T2 sequence (P03951 388-625 C500S/K553A): as the sequence (P03951 388-625 C500S) above, with K166A counted along it

SMILES: O=c1c2ccccc2nc(-c2ccc(OS(=O)(=O)O)cc2)n1CCCCCCn1cc(Cn2c(-c3ccc(OS(=O)(=O)O)cc3)nc3ccccc3c2=O)nn1 [Inhibitor 16S]
- inhibition level after addition of polybrene ([1]; FXIa-CD, 16S plus 30 μM polybrene): 13.1±0.7%
- proteolytic activity in the presence of 16S ([1]; FXIa-CD, no polybrene): ~6%
- inhibition of FXIa-CD compared with wild-type enzyme ([1]; not shown): as potently as the wild-type enzyme
- 2 × APTT (human plasma [2]): 950 µM
- 2 × PT (human plasma [3]): >2000 µM
- change in IC50 from wild-type FXIa-CD (Lys535Ala FXIa-CD): no change in IC50
- proteolytic activity in the presence of 16S ([4]; FXIa-CD triple mutations, no polybrene): ~5%
- inhibition level after addition of polybrene ([4]; FXIa-CD with triple mutations, 16S plus 30 μM polybrene): 7.1±1.2%
- reduction of potency versus FXIa-CD ([4]; Lys529, Arg530 and Arg532 replaced by Ala): approximately 5 fold
- increase in IC50 versus FXIa-CD [5]: 2 fold
- change in IC50 from wild-type FXIa-CD (Lys539Ala FXIa-CD): no change in IC50
- inhibition level after addition of polybrene (human factor XIa [6]): 9.2±1.0%
- proteolytic activity in the presence of 16S (human factor XIa [7]; full length wild-type FXIa, no polybrene): approximately 4%
- ΔY % (efficacy) (human factor XIa [7]; sulfated QAOs): 97 ± 1%
- IC50 (human factor XIa [7]; sulfated QAOs, pH 7.4, 37° C., read-out: IC50 (converted)): ~50 µM and 52 µM
